Values joined by “and” are separate entries in the source; they are usually repeats but may differ in a detail not shown here. Equal entries are not always repeated. Where a SMILES comes first, the peptide text is derived from it.
Experiments:
[1] = biological target: recombinant N-type (Cav2.2) VGCCs α1B-b/α2δ1/β3 (Rattus norvegicus, UniProt Q02294); assay: cell-based; format: cell-based
[2] = system: recombinant N-type (Cav2.2) VGCCs α1B-b/β3; format: cell-based, rat
[3] = biological target: recombinant Cav1.2 α1C (L-type) channels (α/α2δ1/β3) (Oryctolagus cuniculus, UniProt P15381); format: cell-based, rabbit
[4] = biological target: recombinant Cav1.3 α1D (L-type) channels (α/α2δ1/β3) (Rattus norvegicus, UniProt P27732); format: cell-based
[5] = biological target: recombinant Cav2.3 α1E (R-type) channels (α/α2δ1/β3) (Rattus norvegicus, UniProt Q07652); format: cell-based
[6] = biological target: recombinant Cav2.1 α1A (P/Q-type) channels (α/α2δ1/β3) (Oryctolagus cuniculus, UniProt P27884); assay: cell-based; design: species or system rabbit; conditions: read-out: inhibition of Cav2.1 channels

Chain of recombinant N-type (Cav2.2) VGCCs α1B-b/α2δ1/β3 (Q02294 whole entry, looked up): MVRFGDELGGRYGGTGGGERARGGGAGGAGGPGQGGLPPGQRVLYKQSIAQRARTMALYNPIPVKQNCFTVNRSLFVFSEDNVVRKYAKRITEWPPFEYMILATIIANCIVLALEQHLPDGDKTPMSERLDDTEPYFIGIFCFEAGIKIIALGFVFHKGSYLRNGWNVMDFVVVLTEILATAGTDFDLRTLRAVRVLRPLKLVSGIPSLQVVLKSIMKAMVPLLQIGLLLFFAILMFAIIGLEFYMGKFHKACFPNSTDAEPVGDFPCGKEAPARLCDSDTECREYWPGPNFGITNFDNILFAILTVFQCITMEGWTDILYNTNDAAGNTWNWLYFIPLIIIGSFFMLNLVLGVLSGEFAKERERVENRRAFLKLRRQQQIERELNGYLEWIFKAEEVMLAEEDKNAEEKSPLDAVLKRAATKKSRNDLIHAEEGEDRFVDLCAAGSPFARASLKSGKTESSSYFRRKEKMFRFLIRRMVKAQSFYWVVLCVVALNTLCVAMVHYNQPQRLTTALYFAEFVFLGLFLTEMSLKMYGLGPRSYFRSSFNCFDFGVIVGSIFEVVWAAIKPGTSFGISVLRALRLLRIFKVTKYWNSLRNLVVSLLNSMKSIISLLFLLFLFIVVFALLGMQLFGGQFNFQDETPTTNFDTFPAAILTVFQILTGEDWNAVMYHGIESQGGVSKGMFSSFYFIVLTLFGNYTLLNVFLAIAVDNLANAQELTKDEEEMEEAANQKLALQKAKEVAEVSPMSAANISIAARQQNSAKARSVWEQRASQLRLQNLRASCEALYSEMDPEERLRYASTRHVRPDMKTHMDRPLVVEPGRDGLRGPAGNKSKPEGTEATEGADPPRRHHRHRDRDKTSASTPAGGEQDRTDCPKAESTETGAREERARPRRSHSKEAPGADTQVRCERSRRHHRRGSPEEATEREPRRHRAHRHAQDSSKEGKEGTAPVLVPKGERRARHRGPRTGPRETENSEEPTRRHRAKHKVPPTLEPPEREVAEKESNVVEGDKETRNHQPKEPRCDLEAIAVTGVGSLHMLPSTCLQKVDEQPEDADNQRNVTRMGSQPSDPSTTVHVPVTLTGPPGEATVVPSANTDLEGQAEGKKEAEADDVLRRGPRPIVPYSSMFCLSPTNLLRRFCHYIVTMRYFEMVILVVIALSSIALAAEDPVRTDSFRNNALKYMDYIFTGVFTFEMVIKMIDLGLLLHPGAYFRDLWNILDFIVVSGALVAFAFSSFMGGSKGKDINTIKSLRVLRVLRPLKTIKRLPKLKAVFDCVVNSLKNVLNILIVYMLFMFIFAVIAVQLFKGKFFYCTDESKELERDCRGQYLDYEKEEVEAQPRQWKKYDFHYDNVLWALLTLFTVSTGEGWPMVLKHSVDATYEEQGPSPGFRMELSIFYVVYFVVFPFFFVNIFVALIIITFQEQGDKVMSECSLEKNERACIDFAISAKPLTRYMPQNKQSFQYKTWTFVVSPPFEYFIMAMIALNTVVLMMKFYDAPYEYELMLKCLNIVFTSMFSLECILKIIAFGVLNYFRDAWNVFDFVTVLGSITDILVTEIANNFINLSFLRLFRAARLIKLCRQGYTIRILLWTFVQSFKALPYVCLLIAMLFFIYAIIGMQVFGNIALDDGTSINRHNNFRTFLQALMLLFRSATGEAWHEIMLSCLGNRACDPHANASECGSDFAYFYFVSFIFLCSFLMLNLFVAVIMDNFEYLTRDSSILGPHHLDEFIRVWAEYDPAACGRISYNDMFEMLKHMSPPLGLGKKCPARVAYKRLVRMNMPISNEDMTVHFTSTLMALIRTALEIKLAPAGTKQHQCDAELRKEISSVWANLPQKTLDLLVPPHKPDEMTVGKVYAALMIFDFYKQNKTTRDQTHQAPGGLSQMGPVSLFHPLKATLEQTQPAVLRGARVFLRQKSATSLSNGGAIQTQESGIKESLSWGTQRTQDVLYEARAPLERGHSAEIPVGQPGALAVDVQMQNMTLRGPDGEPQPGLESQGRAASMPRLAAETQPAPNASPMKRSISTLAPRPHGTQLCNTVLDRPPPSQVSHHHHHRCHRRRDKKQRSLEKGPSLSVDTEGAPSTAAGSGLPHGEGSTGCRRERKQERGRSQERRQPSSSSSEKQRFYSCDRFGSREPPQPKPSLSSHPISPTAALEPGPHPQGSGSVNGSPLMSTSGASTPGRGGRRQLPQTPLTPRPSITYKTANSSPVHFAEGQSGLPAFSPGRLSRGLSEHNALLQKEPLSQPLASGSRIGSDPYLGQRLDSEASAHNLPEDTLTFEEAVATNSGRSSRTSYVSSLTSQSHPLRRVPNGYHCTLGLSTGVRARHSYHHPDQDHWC
Chain of recombinant Cav2.3 α1E (R-type) channels (α/α2δ1/β3) (Q07652 whole entry, looked up): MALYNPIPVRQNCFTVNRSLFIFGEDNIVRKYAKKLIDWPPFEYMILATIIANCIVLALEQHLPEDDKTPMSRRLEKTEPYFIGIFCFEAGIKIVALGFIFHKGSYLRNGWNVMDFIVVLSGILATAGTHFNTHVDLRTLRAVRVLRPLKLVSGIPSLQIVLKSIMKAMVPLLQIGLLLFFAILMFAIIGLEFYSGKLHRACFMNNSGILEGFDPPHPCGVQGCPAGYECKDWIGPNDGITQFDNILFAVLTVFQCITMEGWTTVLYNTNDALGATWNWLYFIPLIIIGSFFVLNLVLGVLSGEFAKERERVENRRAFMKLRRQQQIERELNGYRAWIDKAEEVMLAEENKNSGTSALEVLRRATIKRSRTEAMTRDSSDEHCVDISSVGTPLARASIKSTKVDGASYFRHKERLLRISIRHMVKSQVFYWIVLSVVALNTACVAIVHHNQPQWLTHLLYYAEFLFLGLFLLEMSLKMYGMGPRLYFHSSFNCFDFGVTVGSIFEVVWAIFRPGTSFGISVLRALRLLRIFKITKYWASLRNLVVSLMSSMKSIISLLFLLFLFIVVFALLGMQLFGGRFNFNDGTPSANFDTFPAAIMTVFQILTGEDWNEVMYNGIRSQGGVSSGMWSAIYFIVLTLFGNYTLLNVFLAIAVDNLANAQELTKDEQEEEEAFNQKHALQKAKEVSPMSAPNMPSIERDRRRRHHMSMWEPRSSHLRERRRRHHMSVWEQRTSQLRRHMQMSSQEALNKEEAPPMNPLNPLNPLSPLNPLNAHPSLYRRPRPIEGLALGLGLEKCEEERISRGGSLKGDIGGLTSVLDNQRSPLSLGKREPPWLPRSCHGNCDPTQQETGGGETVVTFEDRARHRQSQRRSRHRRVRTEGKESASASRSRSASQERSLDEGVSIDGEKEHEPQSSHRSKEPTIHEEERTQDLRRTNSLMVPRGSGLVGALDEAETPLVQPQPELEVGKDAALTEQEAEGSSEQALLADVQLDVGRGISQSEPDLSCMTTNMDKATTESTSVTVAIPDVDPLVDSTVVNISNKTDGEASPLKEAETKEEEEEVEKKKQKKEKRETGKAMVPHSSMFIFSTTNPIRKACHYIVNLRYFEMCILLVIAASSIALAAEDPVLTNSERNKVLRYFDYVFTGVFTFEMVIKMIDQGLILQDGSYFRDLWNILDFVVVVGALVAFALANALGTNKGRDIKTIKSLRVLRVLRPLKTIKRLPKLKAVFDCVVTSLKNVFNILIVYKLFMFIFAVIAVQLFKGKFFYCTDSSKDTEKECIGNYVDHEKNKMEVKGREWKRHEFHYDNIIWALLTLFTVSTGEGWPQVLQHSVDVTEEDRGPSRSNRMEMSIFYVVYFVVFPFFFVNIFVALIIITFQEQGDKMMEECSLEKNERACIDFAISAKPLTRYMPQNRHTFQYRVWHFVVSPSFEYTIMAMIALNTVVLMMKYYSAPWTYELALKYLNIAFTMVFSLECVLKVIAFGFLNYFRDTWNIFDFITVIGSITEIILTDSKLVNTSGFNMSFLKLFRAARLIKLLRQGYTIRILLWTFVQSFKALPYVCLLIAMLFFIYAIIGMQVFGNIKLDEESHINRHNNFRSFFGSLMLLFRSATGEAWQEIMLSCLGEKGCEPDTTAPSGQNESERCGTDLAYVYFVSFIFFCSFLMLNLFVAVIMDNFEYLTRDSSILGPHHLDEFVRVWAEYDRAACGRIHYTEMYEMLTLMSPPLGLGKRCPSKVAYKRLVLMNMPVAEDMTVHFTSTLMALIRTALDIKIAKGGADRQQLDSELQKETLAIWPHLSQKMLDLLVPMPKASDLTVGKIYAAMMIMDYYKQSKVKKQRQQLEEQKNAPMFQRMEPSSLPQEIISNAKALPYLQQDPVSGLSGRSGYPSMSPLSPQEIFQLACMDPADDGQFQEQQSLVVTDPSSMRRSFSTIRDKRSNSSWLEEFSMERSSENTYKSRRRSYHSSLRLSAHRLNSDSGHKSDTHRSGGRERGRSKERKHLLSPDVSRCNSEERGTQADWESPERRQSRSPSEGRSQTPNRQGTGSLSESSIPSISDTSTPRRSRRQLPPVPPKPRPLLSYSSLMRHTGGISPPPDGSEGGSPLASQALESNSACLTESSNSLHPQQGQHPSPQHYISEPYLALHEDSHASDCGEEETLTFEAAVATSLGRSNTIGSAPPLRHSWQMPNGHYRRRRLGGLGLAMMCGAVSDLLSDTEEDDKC

Work on `CSCC[C@@H]1NC(=O)[C@H]([C@@H](C)O)NC(=O)[C@H](CCCCN)NC(=O)[C@H](CCCNC(=N)N)NC(=O)[C@@H]2CSSC[C@@H]3NC(=O)[C@H](CO)NC(=O)CNC(=O)[C@H](CCCNC(=N)N)NC(=O)[C@H](CSSC[C@H](N)C(=O)N[C@@H](CCCCN)C(=O)NCC(=O)N[C@@H](CCCCN)C(=O)NCC(=O)N[C@@H](C)C(=O)N[C@@H](CO)C(=O)N2)NC(=O)[C@H](CSSC[C@@H](C(N)=O)NC(=O)[C@H](CCCNC(=N)N)NC(=O)CNC(=O)[C@H](CO)NC(=O)[C@H](CCCNC(=N)N)NC3=O)NC(=O)[C@H](CC(=O)O)NC(=O)[C@H](Cc2ccc(O)cc2)NC1=O` [CVIB, reference compound] (HELM PEPTIDE1{C.K.G.K.G.A.S.C.R.K.T.M.Y.D.C.C.R.G.S.C.R.S.G.R.C.[am]}$PEPTIDE1,PEPTIDE1,1:R3-16:R3|PEPTIDE1,PEPTIDE1,8:R3-20:R3|PEPTIDE1,PEPTIDE1,15:R3-25:R3$$$V2.0) yielded a Hill slope [1] of 0.47±0.03, an IC50 [1] of 12 ± 2.3 nM and an IC50 [2] of 1.6 ± 0.6 nM.

For `C[C@@H]1NC(=O)CNC(=O)[C@H](CCCCN)NC(=O)CNC(=O)[C@H](CCCCN)NC(=O)[C@@H](N)CSSC[C@@H]2NC(=O)[C@@H]3CSSC[C@@H](C(N)=O)NC(=O)[C@H](CCCNC(=N)N)NC(=O)CNC(=O)[C@H](CO)NC(=O)[C@H](CCCNC(=N)N)NC(=O)[C@H](CSSC[C@H](NC(=O)[C@H](CO)NC1=O)C(=O)N[C@@H](CCCNC(=N)N)C(=O)N[C@@H](CCCNC(=N)N)C(=O)N[C@@H]([C@@H](C)O)C(=O)N[C@@H](CO)C(=O)N[C@@H](Cc1ccc(O)cc1)C(=O)N[C@@H](CC(=O)O)C(=O)N3)NC(=O)[C@H](CO)NC(=O)CNC(=O)[C@H]([C@@H](C)O)NC2=O` [CVIE, CKGKGASCRRTSYDCCTGSCRSGRC], the Hill slope [1] was 0.45±0.03, the IC50 [1] was 2.6 ± 0.5 nM and the “inhibition of depolarization-activated Ba2+ currents (IBa)” value [1] was “potently inhibited”. For the same compound, the “time constant of block (τon)” value [1] was 31.5 ± 2.4 s and 38.5 ± 2.8 s, the IC50 [2] was 0.12 ± 0.05 nM and the “effect on Cav1.2 channels” value [3] was “neither peptide had any effect”. For the same compound, the “effect on Cav1.3 channels” value [4] was “neither peptide had any effect”, the “effect on Cav2.3 channels” value [5] was “neither peptide had any effect” and the inhibition at 3 µM [6] was less than 10%.

With `CC(C)C[C@@H]1NC(=O)[C@H](CCCNC(=N)N)NC(=O)[C@@H]2CSSC[C@@H]3NC(=O)[C@H](CO)NC(=O)[C@H](C)NC(=O)CNC(=O)[C@H](CCCCN)NC(=O)CNC(=O)[C@H](CCCCN)NC(=O)[C@@H](N)CSSC[C@H](NC(=O)[C@H](CSSC[C@@H](C(N)=O)NC(=O)[C@H](CCCNC(=N)N)NC(=O)CNC1=O)NC(=O)[C@H](CC(=O)O)NC(=O)[C@H](Cc1ccc(O)cc1)NC(=O)[C@H](CO)NC(=O)[C@H]([C@@H](C)O)NC(=O)[C@H](CCCNC(=N)N)NC(=O)[C@H](CCCNC(=N)N)NC3=O)C(=O)N[C@@H]([C@@H](C)O)C(=O)NCC(=O)N[C@@H](CO)C(=O)N2` [CVIF] (HELM PEPTIDE1{C.K.G.K.G.A.S.C.R.R.T.S.Y.D.C.C.T.G.S.C.R.L.G.R.C.[am]}$PEPTIDE1,PEPTIDE1,1:R3-16:R3|PEPTIDE1,PEPTIDE1,8:R3-20:R3|PEPTIDE1,PEPTIDE1,15:R3-25:R3$$$V2.0) the Hill slope [1] was 0.51±0.04, the “inhibition of depolarization-activated Ba2+ currents (IBa)” value [1] was “potently inhibited” and the IC50 [2] was 0.1 ± 0.07 nM. The “effect on Cav1.2 channels” value [3] was “neither peptide had any effect”, the “effect on Cav1.3 channels” value [4] was “neither peptide had any effect” and the “effect on Cav2.3 channels” value [5] was “neither peptide had any effect”. For the same compound, the inhibition at 3 µM [6] was less than 10%.

From patent US8765677B2 (priority 2009, dated 2014)
